Test results published in ChEMBL document CHEMBL2074556, “Possible involvement of P-glycoprotein in the biliary excretion of grepafloxacin” (Clin Exp Pharmacol Physiol, 2002).
Each block holds one compound with its values, some of them ahead of it.

Assays:
[1] = target: Multidrug resistance protein 1a (Rattus norvegicus) (UniProt Q6PSM0); test: TP_TRANSPORTER: […] in biliary excretion by Doxorubicin, Cyclosporin A and Erythromycin in vivo Wistar rat; type: functional, organism-based; details: Bile
[2] = target: T1, ATP-dependent translocase ABCB1 (Mus musculus, UniProt P21447); test: TP_TRANSPORTER: increase in Doxorubicin intracellular accumulation (Doxorubicin: 5 uM, GPFX: 500 uM) in P388/ADR cells; type: functional, cell-based
[3] = target: T1, ATP-dependent translocase ABCB1; test: TP_TRANSPORTER: increase in Doxorubicin intracellular accumulation (Doxorubicin: 5 uM, Norfloxacin: 500 uM) in P388/ADR cells; type: functional, cell-based
[4] = target: T1, ATP-dependent translocase ABCB1; test: TP_TRANSPORTER: increase in Doxorubicin intracellular accumulation (Doxorubicin: 5 uM, SPFX: 500 uM) in P388/ADR cells; type: functional, cell-based
[5] = target: T1, ATP-dependent translocase ABCB1; test: TP_TRANSPORTER: increase in Doxorubicin intracellular accumulation (Doxorubicin: 5 uM, Tosufloxacin: 500 uM) in P388/ADR cells; type: functional, cell-based

T1 sequence (P21447 whole entry): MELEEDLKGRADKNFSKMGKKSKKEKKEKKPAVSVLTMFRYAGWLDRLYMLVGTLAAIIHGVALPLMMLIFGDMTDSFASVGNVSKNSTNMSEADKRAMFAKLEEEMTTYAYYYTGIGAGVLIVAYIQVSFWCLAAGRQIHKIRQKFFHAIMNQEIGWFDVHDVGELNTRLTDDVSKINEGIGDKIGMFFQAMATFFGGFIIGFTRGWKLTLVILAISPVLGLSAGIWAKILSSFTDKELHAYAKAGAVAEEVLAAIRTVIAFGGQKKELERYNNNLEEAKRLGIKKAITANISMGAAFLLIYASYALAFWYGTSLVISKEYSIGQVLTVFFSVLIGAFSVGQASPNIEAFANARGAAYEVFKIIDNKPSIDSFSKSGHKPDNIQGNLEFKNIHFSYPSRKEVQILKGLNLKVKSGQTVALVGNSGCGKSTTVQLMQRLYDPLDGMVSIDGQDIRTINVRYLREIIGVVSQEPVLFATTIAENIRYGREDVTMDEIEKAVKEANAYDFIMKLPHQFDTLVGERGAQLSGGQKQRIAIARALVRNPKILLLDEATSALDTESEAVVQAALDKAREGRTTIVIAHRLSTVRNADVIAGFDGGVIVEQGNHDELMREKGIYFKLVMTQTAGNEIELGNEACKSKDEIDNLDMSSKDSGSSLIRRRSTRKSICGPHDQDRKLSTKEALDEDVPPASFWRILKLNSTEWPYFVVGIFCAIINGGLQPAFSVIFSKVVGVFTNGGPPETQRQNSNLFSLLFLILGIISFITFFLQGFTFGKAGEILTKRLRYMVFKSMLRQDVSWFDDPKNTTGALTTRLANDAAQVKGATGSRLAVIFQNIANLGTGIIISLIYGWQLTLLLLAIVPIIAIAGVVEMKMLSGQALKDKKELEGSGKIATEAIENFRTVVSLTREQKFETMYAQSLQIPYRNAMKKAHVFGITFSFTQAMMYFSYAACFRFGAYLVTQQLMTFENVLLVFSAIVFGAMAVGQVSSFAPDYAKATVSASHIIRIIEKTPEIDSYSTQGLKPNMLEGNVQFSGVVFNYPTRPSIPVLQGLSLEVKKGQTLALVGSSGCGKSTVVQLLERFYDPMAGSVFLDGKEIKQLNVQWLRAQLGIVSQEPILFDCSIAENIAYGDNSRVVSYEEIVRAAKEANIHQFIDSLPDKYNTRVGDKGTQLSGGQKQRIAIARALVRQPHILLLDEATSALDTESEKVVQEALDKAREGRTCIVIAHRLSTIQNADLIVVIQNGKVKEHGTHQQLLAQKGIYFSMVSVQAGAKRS
Sequence of Multidrug resistance protein 1a (Rattus norvegicus) (Q6PSM0 as listed by the source): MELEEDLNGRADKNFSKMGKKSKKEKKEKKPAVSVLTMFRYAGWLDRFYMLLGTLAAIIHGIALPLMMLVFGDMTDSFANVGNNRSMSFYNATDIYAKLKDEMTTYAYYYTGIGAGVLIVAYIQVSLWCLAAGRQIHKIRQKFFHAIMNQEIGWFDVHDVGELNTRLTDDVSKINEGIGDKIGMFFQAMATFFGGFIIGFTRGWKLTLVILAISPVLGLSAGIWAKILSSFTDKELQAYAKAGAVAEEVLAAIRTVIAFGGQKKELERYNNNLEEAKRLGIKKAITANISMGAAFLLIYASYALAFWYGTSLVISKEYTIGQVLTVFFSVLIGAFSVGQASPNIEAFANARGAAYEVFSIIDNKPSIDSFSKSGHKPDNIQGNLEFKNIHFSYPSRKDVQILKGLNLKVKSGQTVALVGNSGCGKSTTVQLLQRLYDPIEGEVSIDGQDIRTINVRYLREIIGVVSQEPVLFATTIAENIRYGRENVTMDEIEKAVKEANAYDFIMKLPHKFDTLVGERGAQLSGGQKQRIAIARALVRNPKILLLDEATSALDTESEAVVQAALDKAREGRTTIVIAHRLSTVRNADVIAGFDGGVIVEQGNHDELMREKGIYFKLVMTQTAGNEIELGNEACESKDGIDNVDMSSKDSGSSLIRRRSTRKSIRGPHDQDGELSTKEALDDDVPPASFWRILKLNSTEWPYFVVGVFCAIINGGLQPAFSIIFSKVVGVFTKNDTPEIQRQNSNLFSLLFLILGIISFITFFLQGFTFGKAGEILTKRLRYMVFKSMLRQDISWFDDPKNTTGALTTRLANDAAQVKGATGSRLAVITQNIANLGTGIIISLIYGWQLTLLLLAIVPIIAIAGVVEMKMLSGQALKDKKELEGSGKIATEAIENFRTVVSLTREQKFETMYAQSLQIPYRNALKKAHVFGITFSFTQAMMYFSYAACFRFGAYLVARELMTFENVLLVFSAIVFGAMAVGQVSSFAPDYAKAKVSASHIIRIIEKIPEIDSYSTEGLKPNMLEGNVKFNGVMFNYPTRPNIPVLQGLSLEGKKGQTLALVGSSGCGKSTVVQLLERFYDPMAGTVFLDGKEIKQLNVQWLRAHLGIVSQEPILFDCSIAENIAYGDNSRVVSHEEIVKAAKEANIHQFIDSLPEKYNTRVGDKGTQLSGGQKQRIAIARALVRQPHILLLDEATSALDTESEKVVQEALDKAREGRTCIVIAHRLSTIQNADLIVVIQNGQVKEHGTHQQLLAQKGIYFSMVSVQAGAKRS

- Activity [1]: substrate [+]
SMILES: Cc1c(F)c(N2CCNC(C)C2)cc2c1c(=O)c(C(=O)O)cn2C1CC1 (stereo not given) [GREPAFLOXACIN]
- Activity [2]: inhibitor [(at a rough estimate) 140 % of control]

SMILES: CCn1cc(C(=O)O)c(=O)c2cc(F)c(N3CCNCC3)cc21 [NORFLOXACIN]
- Activity [3]: inhibitor [(at a rough estimate) 290 % of control]

SMILES: C[C@@H]1CN(c2c(F)c(N)c3c(=O)c(C(=O)O)cn(C4CC4)c3c2F)C[C@H](C)N1 [SPARFLOXACIN]
- Activity [4]: inhibitor [(at a rough estimate) 140 % of control]

SMILES: NC1CCN(c2nc3c(cc2F)c(=O)c(C(=O)O)cn3-c2ccc(F)cc2F)C1 (stereo not given) [TOSUFLOXACIN]
- Activity [5]: inhibitor [(at a rough estimate) 200 % of control]
